In patent publication US20240175029A1, “RNA INHIBITOR FOR INHIBITING HEPATITIS B VIRUS GENE EXPRESSION AND APPLICATION THEREOF” (priority 2021, published 2024):

Legend:
[1] = test system: HBV HBsAg; test: Comparison and combined use of Ky-2208 and tenofovir (TDF) in HBV transgenic (HBV-Tg) mice, HBsAg; type: in vivo; conditions: Ky-2208 3 or 9 mpk sc single, TDF 15 mpk po daily, d7-d28
Method: Experimental procedures: 48 HBV-Tg male mice with a body weight of 25-35 g and a week age of 8-13 w, were raised in an animal room that meets the SPF standard, with a temperature of 16-26° C., a humidity of 40-70% and circulating light (12 hours in light and dark respectively), and were free to eat and drink water. The solvent for formulation of the compound was normal saline, and the concentration of the working solution was 0.75 mg/mL. […] The experiment consisted of 6 groups, including one control group ([…]) and 5 administration groups. The drug was administered once on the day of d0, and mice in each group were subcutaneously injected with 0.04 mL/10 g of the corresponding test solution on d0. Whole blood was collected through the orbital venous plexus of mice on d0 before administration and d7, d14, d21 and d28 after administration, and centrifuged at 3000×g for 5 minutes. Supernatant was sampled on d0, d7, d14, d21 and d28 to detect HBV HBsAg.

[2] = test system: HBsAg; test: Ky-22 combined with entecavir or interferon in HepG2.2.15 cells, HBsAg; type: cell-based, HBV; conditions: 72 hours, ETV 0.1-10 μM, IFN-α 10-1000 IU/mL, Ky-22 0.125 μg/mL
Method: (§1) The experiment was conducted in the widely used HepG2.2.15 cell line to evaluate the inhibitory effect of the RNA inhibitor of the present invention in combination with different concentrations of entecavir (ETV) or interferon (IFN-a) on HBV.
(§2) Experimental procedures: DMEM medium containing 10% fetal bovine serum was prepared. Media containing 10 nM RNA inhibitor Ky-22 was prepared from a culture medium. HepG2.2.15 cells were inoculated at a cell density of […] and cultured in the DMEM medium with 10% fetal bovine serum at 37° C. under 5% CO2 for 24 hours, added with the drug for intervention, and incubated for 72 hours. The supernatant was sampled to detect HBsAg, HBeAg and HBV DNA. The relative percentages of HBsAg, HBeAg, and HBV DNA in the sample intervention groups were calibrated by compared with the supernatant of HepG2.2.15 cells without intervention.

[3] = test system: HBeAg; test: Ky-22 combined with entecavir or interferon in HepG2.2.15 cells, HBeAg; type: cell-based, HBV; conditions: 72 hours, ETV 0.1-10 μM, IFN-α 10-1000 IU/mL, Ky-22 0.125 μg/mL
Method: as §1, §2

Row | Compound | reduction of HBsAg level [1] | inhibitory effect on HBsAg [2] | inhibitory effect on HBeAg [3]
1 | CC(C)OC(=O)OCOP(=O)(CO[C@H](C)Cn1cnc2c(N)ncnc21)OCOC(=O)OC(C)C.O=C(O)/C=C/C(=O)O [TDF, Tenofovir] | no inhibitory effect | – | –
2 | C[C@H](Cn1cnc2c(N)ncnc21)OCP(=O)(O)O [tenofovir (TDF), tenofovir] | does not have the efficacy of reducing HBsAg level | – | –
3 | C=C1[C@H](CO)[C@@H](O)C[C@@H]1n1cnc2c(=O)[nH]c(N)nc21 [entecavir] | – | no significant inhibitory effect | no significant inhibitory effect
